Reference: patent publication US20260297031A1, “HYDROXYLAMINE-BASED BCR-ABL1 INHIBITORS FOR TREATMENT OF CANCER” (University of Georgia Research Foundation, Inc., priority 2023, published 2026)
“Also recorded” adds a separate entry of the source.

Legend:
[1] = test system: P-glycoprotein (P-gp) and/or breast cancer resistance protein (BCRP); conditions: cited from earlier work
[2] = Metabolic stability in human hepatocytes; conditions: for remaining at 0.5 min / remaining at 0.5 h / remaining at 1 h / remaining at 2 h: hepatocytes
Experimental: Metabolic Stability in Hepatocytes (Independently Performed by Pharmaron Inc., Ninqbo, CN)
After thawing was complete, hepatocytes were transferred into a 50 mL conical tube containing thawing medium and the tube was then placed into a centrifuge and spun at 100 g for 10 min. […] Using AO/PI staining, cells were counted to determine the viable cell density. […] Subsequently, 2 μL of the 100 μM test compounds or control compound solutions was transferred into the respective wells of the 96-well non-coated plate to start the reaction. […] Aliquots of 100 μL of the supernatant were then diluted by 100 μL of ultra-pure water, and the mixture was analyzed by LC-MS/MS.
All calculations were carried out using Microsoft Excel. Peak areas were determined from extracted ion chromatograms. The in-vitro half-life (t1/2) of parent compound was determined by regression of the percent parent disappearance vs. time curve.

BCR-ABL1 Q252H = target: T1, BCR-ABL1 Q252H (Homo sapiens, UniProt P00519, Q252H); test: KinaseProfiler radiometric kinase assay, BCR-ABL1 Q252H; type: biochemical; conditions: [ATP] = 10 μM; mean of n = 2
T1 construct: BCR (fusion partner, as the printed name BCR-ABL1 says)

BCR-ABL1 M351T = target: T2, BCR-ABL1 M351T (Homo sapiens, UniProt P00519, M351T); test: KinaseProfiler radiometric kinase assay, BCR-ABL1 M351T; type: biochemical; conditions: [ATP] = 10 μM; mean of n = 2
T2 construct: BCR (fusion partner, as the printed name BCR-ABL1 says)

cSRC = cSRC (Homo sapiens, UniProt P12931); test: KinaseProfiler radiometric kinase assay, cSRC wt; type: biochemical; conditions: for IC50: [ATP] = 10 μM, mean of n = 2
mutant BCR-ABL1 = test: KinaseProfiler radiometric kinase assay, mutant BCR-ABL1 kinases as a group; type: biochemical, human
From the text: Biochemical Human RTK Kinase Enzymatic Radiometric Assay, KinaseProfiler (Independently Performed by Eurofins Cerep SA, FR)

[3] = Plasma protein binding by equilibrium dialysis, human plasma; type: in vitro ADME; conditions: human plasma; for % Unbound: 360 min, 5 µM
Experimental: Plasma Protein Binding by Equilibrium Dialysis (Independently Performed by Pharmaron Inc., Ninqbo, CN)
Initially, 1 mM solutions of test compounds and the control compound (Ketoconzaole) were prepared in DMSO. After this, dialysis membranes were soaked in ultrapure water for 60 min to separate strips, followed by 20% aq. ethanol for 20 min, and finally in a dialysis buffer for 20 min. […] After this, 597 μL of blank plasma solution followed by 3 μL of the working solutions of either test compounds or control compound were added to a new plastic plate or separate plastic tube and the solutions were vortexed at 1,000 rpm for 2 min. Immediately after this, 50 μL of spiked plasma solution suspension was transferred to a 96-well plate to act as T=0 control. The remaining samples were treated in the same manner, whereby all remaining spiked plasma solutions were added to the incubator for the duration of the study.
Cells were then loaded with 120 μL of the plasma samples and dialyzed against an equal volume of dialysis buffer (PBS). […] At the end of incubation, the lid was removed and 50 μL of post-dialysis samples were removed from both buffer and plasma solution chambers into a separate 96-well plate for analysis. The plasma solutions (50 μL) were then added to the buffer samples along with an equal volume of PBS (50 μL) to the collected plasma solution samples. The plate was shaken at 1,000 rpm for 2 min and 400 μL of acetonitrile containing an appropriate internal standard was added to precipitate protein and release compound. The samples were then vortexed at 1,000 rpm for an additional 10 min followed by centrifugation at 3,220 g for 30 min. Supernatant (250 μL) was then added to a new 96-well plate and centrifuged again at 3,220 g for 30 min and 100 μL of this supernatant was then added to a new 96-well plate for analysis. The samples were analyzed by LC-MS/MS and 100 μL of distilled water was added to each sample prior to analysis.
Concentrations of test compounds and control compound in buffer and plasma solution chambers was determined and percentages of test compounds and control compound bound using the following equations (mean of n=2 replicates): […]

Caco-2 cells = test: Caco-2 permeability; conditions: Papp (b − a/a − b)
Experimental: Caco-2 Permeability (Independently Performed by Pharmaron Inc., Ningbo, CN)
To each well of the Transwell insert and reservoir were added 50 μL and 25 mL of cell culture medium, respectively. […] Following this, the Caco-2 plate was removed from the incubator and the monolayer washed twice with pre-warmed HBSS (10 mM HEPES, pH 7.4).
To determine the rate of drug transport in the apical to basolateral direction, 125 μL of the working solution of either test compounds or control compounds was added to the Transwell insert (apical compartment) and a 50 μL sample was immediately transported from the apical compartment to 200 μL of acetonitrile containing internal standard (100 nM alprazolam, 200 nM Caffeine and 100 nM tolbutamide) in a new 96-well plate as the initial donor sample (A-B). The sample was then vortexed at 1,000 rpm for 10 min. The receiver plate (basolateral compartment) wells were then filled with 235 μL of transport buffer. To determine the rate of drug transport in the basolateral to apical direction, 285 μL of the working solution of either test compounds or control compounds was added to the receiver plate wells (basolateral compartment) and a 50 μL sample was immediately transferred from the basolateral compartment to 200 μL of acetonitrile containing internal standard in a new 96-well plate as the initial donor sample (B-A). The sample was vortexed at 1,000 rpm for 10 min. The Transwell insert (apical compartment) was then filled with 75 μL of transport buffer and the apical to basolateral direction and the basolateral to apical direction were done at the same time. […] After incubation, 50 μL samples from donor sides (apical compartment for Ap→BI flux, and basolateral compartment for BI→Ap) and receiver sides (basolateral compartment for Ap→BI flux, and apical compartment for BI→Ap) were transferred to wells of a new 96-well plate, followed by the addition of 200 μL acetonitrile containing internal standard. All samples were vortexed for 10 min and then centrifuged at 3,220 g for 40 min. A 150 μL aliquot of the supernatant was then mixed with an appropriate volume of ultra-pure water prior to LC-MS/MS analysis.
(§1) To monitor for monolayer integrity, Lucifer yellow leakage was determined after the 2 h transport period. This began by preparing a stock solution of Lucifer yellow in DMSO which was diluted with HBSS (10 mM HEPES, pH 7.4.) to reach a final concentration of 100 μM. To each Transwell insert (apical compartment) was then added 100 μL of the Lucifer yellow solution, followed by filling the wells in the receiver plate (basolateral compartment) with 300 μL of HBSS (10 mM HEPES, pH 7.4).
(§2) The efflux ratio was determined using the following equation: […]

MDCKII-MDR1 cells = test: MDCKII-MDR1 permeability; conditions: MDCKII-MDR1
Experimental: MDCKII-MDR1 Permeability (Independently Performed By: Pharmaron Inc., Ninqbo, CN)
To each well of the Transwell insert and reservoir were added 50 μL and 25 mL of cell culture medium, respectively.
To determine the rate of drug transport in the apical to basolateral direction, 125 μL of the working solution of either test compounds or control compounds was added to the Transwell insert (apical compartment) and a 50 μL sample was immediately transferred from the apical compartment to 200 μL of acetonitrile containing internal standard (100 nM alprazolam, 200 nM caffeine, and 100 nM tolbutamide) in a new 96-well plate as the initial donor sample (A-B). The sample was then vortexed at 1,000 rpm for 10 min. The receiver plate (basolateral compartment) wells were then filled with 235 μL transport buffer. To determine the rate of drug transport in the basolateral to apical direction, 285 μL of the working solution of either test compounds or control compounds was added to the receiver plate (basolateral compartment) wells and a 50 μL of sample was immediately transferred from the basolateral compartment to 200 μL of acetonitrile containing internal standard in a new 96-well plate as the initial donor sample (B-A). The sample was vortexed for 10 min at 1,000 rpm. The Transwell insert (apical compartment) was then filled with 75 μL of transport buffer and the apical to basolateral direction and the basolateral to apical direction were done at the same time. […] After incubation, 50 μL samples from donor sides (apical compartment for Ap→BI flux, and basolateral compartment BI→Ap) and receiver sides (basolateral compartment for Ap→BI flux, and apical compartment for BI→Ap) were transferred to wells of a new 96-well plate, followed by the addition of 200 μL acetonitrile containing internal standard. […] An aliquot of 100 μL of the supernatant was mixed with an appropriate volume of ultra-pure water before LC-MS/MS analysis.
as §1, with “and” for “which was”
as §2

hERG channel = hERG channel (Homo sapiens, UniProt Q12809); design: expressed in transfected cells; host or cells: HEK 293; conditions: cited from earlier work
[4] = Metabolic stability in mouse hepatocytes; type: in vitro ADME; conditions: read-out: Remaining Percentages
Experimental: All calculations were carried out using Microsoft Excel. Peak areas were determined from extracted ion chromatograms.

Chain of cSRC (P12931 whole entry): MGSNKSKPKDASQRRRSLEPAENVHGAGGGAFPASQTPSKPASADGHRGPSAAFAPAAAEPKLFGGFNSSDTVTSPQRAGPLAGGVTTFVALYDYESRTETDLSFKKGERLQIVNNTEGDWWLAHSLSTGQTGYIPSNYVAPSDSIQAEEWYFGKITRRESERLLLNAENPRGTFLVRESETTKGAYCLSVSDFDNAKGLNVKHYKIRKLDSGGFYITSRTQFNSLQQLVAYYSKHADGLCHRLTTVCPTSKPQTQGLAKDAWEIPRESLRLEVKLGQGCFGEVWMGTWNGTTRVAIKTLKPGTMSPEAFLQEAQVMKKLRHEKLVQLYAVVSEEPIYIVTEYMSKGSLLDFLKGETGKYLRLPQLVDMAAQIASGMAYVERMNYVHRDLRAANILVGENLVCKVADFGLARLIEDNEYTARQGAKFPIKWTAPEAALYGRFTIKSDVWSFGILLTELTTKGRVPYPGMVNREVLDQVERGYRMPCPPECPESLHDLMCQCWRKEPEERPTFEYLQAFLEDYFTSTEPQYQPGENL
Chain of hERG channel (Q12809 whole entry): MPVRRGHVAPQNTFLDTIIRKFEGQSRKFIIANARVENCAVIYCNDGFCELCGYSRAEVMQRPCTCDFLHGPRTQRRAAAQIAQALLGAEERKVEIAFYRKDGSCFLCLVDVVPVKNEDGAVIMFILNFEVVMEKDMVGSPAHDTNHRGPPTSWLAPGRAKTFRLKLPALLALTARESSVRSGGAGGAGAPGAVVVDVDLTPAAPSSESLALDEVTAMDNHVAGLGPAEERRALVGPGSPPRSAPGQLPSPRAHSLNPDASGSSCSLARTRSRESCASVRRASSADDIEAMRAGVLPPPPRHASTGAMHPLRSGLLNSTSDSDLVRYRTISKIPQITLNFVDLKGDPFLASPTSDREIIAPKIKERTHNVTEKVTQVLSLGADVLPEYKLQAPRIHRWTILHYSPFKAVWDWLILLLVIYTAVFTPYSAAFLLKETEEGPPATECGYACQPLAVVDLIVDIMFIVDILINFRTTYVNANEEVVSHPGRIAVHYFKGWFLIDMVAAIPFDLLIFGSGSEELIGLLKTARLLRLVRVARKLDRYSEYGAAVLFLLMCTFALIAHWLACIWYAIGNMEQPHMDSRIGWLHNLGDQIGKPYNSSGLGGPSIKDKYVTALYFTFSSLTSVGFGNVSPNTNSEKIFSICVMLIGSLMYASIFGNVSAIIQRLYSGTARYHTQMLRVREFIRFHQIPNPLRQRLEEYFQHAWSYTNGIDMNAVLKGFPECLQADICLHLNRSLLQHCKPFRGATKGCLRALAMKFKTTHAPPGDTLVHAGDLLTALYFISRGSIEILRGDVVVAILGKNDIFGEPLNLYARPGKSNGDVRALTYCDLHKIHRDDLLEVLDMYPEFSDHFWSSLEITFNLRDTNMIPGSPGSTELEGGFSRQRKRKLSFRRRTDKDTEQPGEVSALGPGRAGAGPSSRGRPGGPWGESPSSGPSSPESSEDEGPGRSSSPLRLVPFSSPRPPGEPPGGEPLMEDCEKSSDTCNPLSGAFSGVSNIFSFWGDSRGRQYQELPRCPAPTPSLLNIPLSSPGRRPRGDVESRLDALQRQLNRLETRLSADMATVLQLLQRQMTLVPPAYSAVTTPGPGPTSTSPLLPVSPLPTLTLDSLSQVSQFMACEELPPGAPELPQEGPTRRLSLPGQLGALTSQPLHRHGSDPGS

## O=C(Nc1ccc(OC(F)(F)Cl)cc1)c1cnc(N2CC[C@@H](O)C2)c(-c2ccn[nH]2)c1 [Asciminib, asciminib]
[1]
  efflux transporter substrate (background): P-gp substrates; also recorded: potent substrates for efflux transporters

## COc1cc2c(Nc3cccc(Cl)c3F)c(C#N)cnc2cc1OCCON1CCN(C)CC1 [Compound 16, 4-((3-Chloro-2-flurophenyl)amino)-6-methoxy-7-(2-((4-methylpiperazin-1-yl)oxy)ethoxy)quinoline-3-carbonitrile]
[2]
  remaining at 0.5 min: 100%
  remaining at 0.5 h: 66.9%
  remaining at 1 h: 45.1%
  remaining at 2 h: 18.6%

## COc1cc2c(Nc3cccc(OC)c3F)c(C#N)cnc2cc1OCCON1CCN(C)CC1 [Compound 18, 4-((2-Fluoro-3-methoxyphenyl)amino)-6-methoxy-7-(2-((4-methylpiperazin-1-yl)oxy)ethoxy)quinoline-3-carbonitrile]
BCR-ABL1 Q252H
  IC50: 30 nM
[2]
  remaining at 0.5 min: 100%
  remaining at 0.5 h: 95.7%
  remaining at 1 h: 80.4%
  remaining at 2 h: 54.9%
BCR-ABL1 M351T
  IC50: 24 nM
cSRC
  IC50: 34 nM
Mutant BCR-ABL1; read-out: IC50 against (imatinib resistant / relevant) mutant BCR-ABL1 kinases, group of mutants
  IC50: ≥ 15 nM
[3]
  % Unbound: 12.97%
Caco-2 cells
  Efflux Ratio: 12.36

## COc1cc(Nc2c(C#N)cnc3cc(OCCON4CCN(C)CC4)c(OC)cc23)ccc1Cl [Compound 19]
[2]
  stability in hepatocytes, in words: good stability in human hepatocytes
  remaining at 0.5 min: 100%
  remaining at 0.5 h: 68.1%
  remaining at 1 h: 50.2%
  remaining at 2 h: 25.5%
MDCKII-MDR1 cells
  efflux (P-gp), in words: reduced efflux ratios
  permeability in MDCKII-MDR1 cells, in words: markedly improved permeability
BCR-ABL1 M351T
  IC50: 1 nM
cSRC
  IC50: 2 nM

## COc1cc2c(Nc3ccc(Cl)c(OC)n3)c(C#N)cnc2cc1OCCON1CCN(C)CC1 [Compound 21, 4-((5-Chloro-6-methoxypyridin-2-yl)amino)-6-methoxy-7-(2-((4-methylpiperazin-1-yl)oxy)ethoxy)quinoline-3-carbonitrile]
cSRC
  cSRC kinase activity, in words: excellent activity
Mutant BCR-ABL1
  BCR-ABL1 kinase activity, in words: excellent activity

## Cc1nc(Nc2ncc(C(=O)Nc3c(C)cccc3Cl)s2)cc(N2CCN(CCO)CC2)n1 [Dasatinib, dasatinib]
hERG channel
  hERG liability, in words (background): reduced affinity for the hERG ion channel
[1]
  efflux transporter substrate (background): P-gp substrates; also recorded: potent substrates for efflux transporters

## CC(=O)N1CCN(c2ccc(OCC3COC(Cn4ccnc4)(c4ccc(Cl)cc4Cl)O3)cc2)CC1 (stereo not shown) [Ketoconazole]
[3]
  % Unbound: 0.80%
[3]; read-out: % Bound (converted)
  fraction unbound at 6 h, 5 µM: 0.008

## Cc1cn(-c2cc(NC(=O)c3ccc(C)c(Nc4nccc(-c5cccnc5)n4)c3)cc(C(F)(F)F)c2)cn1 [Nilotinib, nilotinib]
hERG channel
  hERG liability, in words (background): inhibition of the human Ether-b-go-go-Related Gene (hERG) potassium ion channel

## COc1ccc(CCN(C)CCCC(C#N)(c2ccc(OC)c(OC)c2)C(C)C)cc1OC (stereo not shown) [Verapamil, reference compound]
[2]
  remaining at 0.5 h: 35.6%
  remaining at 1 h: 17.7%
  remaining at 2 h: 4.83%
[4]; 15 min
  remaining at […]: 16.7%
[4]; 30 min
  remaining at 0.5 h: 4.39%
[4]; 60 min
  remaining at 1 h: 1.24%
